Patent publication EP0603240B1, “SAFENING HERBICIDAL PYRAZOLYLSULFONYLUREAS” (priority 1991, dated 1993)
Counter-ions that a name gives are not always drawn. Like-named read-outs stand apart in the source and are kept apart here.

Experiments:
corn [1] = assay: Example 12, Procedure II: Herbicide No. 1 + acetochlor (No. 6) with thirteen antidotes; format: in vivo
Protocol: (§1) Containers were filled and compacted with a fumigated silt loam top soil to a depth of about 1.3 cm from the top of the container. A first container was designated as an untreated control, a second container was designated as a herbicide control, and a third container was designated as a herbicide + antidote test container. Each of the containers was seeded with a crop species. A measured amount of herbicide dispersed or dissolved in acetone was applied to a measured quantity of soil. To this same quantity of soil treated with herbicide, there was added a measured amount of antidote dispersed or dissolved in acetone. The quantity of soil treated with the herbicide and antidote was thoroughly mixed to incorporate the herbicide and antidote in the soil uniformly. The seed bed in the third container of soil was covered with the soil treated with the herbicide and antidote and the container was leveled. For each test series, the seed beds of the first and second containers were likewise covered by soil layers. the cover layer of the first container was not treated with herbicide or antidote.
(§2) The containers were then placed on a bench in a greenhouse and sub-irrigated as required for the duration of the test. […] Plant response is measured in terms of percent injury. Antidote efficacy is indicated as the difference in plant injury by the herbicide(s) without the antidote and with the antidote.
(§3) This procedure is the same as Procedure I, but modified in the manner that after incorporation of the chemicals (herbicide and antidote) the containers with the covered seedbed were treated with an initial overhead irrigation equivalent to 0.6 cm rainfall, then subsequently sub-irrigated as required on greenhouse benches.
This example was designed to investigate the efficacy of thirteen different antidotes from different classes of chemistry as safeners against compositions of Herbicide No. 1 and acetochlor (Herbicide No. 6) as co-herbicide. Acetochlor is the active ingredient in the commercial herbicides GUARDIAN® and WENNER®.
The test procedure used in this example was Procedure II described above.

corn [2] = assay: Example 24, Procedure II: Herbicide No. 1 + co-herbicides Nos. 4, 6, 7, 12 with Antidote Nos. 15 and 17-21; format: in vivo; settings: antidote 2.24 kg/ha; highest test rate (0.56 kg/ha) of Herbicide No. 1 + co-herbicide
Protocol: as §1, §2, §3
In other greenhouse tests, using Procedure II described above, the safening efficacy of Antidote Nos. 15 and 17-21 was evaluated against Herbicide No. 1 in corn in the presence of Giant foxtail (Setaria fabergi) and Velvetleaf (Abutilon theophrasti) as representative annual monocotyledonous and dicotyledonous weeds, respectively.
Test results are shown in Tables 23A and 23B wherein the indicated plant inhibition represents the average of duplicate replications, with observations being made thirteen (13) days after application of the chemicals. Giant foxtail and Velvetleaf are represented by the symbols "GFT" and "VL", respectively. The data in Table 23A show the test results using the antidotes at 2.24 kg/ha, whereas in Table 23B, the antidotal rate was reduced to 0.56 kg/ha.
The tests described in Example 23 were duplicated, but in this example a variety of co-herbicides were included to ascertain the efficacy of the antidotes against combinations of Herbicide No. 1 and Herbicides Nos. 4, 6, 7 and 12 as co-herbicides. Test results are shown in Table 24, wherein the antidote application rate was 2.24 kg/ha.

corn [3] = assay: Example 25, greenhouse preemergence test: Antidote Nos. 1 and 2 against Herbicide Nos. 1-3; format: in vivo, Corn (Pioneer 3424 variety); settings: Zea mays, pre-emergence, no antidote
Protocol: The chemicals were tested in both preemergence and post-emergence modes of application. The herbicides were prepared and applied as wettable powders; dichlormid was applied as an emulsifiable concentrate, while the naphthalic anhydride was applied as a coating on the corn seed prior to planting.
Test data from the preemergence tests are shown in Table 25A and from the post-emergence tests in Table 25B. In the tables, the concentration of chemicals is shown in terms of active ingredient in grams per hectare (G/ha); concentrations of the naphthalic anhydride were not measured per se, but were present as in conventional, normally-coated applications. Corn injury is shown in terms of percent inhibition of growth.

N#CC(=NOCC1OCCO1)c1ccccc1 [Antidote No. 6, Benzeneacetonitrile, α-{[(1,3-dioxolan-2-yl)methoxy]imino}-]
safening of corn, assessment in words (corn [1]; Herbicide No. 1:Herbicide 6:Antidote 0.14:2.24:2.24 kg/ha): performed at commercial levels | safening of corn, assessment in words (corn [1]; Herbicide No. 1:Herbicide 6:Antidote 0.14:2.24:8.96 kg/ha): performed at commercial levels

CC1COc2ccccc2N1C(=O)C(Cl)Cl (stereo not shown) [Antidote No. 17, 4-(Dichloroacetyl)-3,4-dihydro-3-methyl-2H-1,4-benzoxazine]
safening of corn, assessment in words (corn [2]): failed to safen

O=C(O)COC(c1ccccc1)c1ccccc1 [Antidote No. 18, Acetic acid, (diphenylmethoxy)- sodium salt, hemihydrate]
safening of corn, assessment in words (corn [2]): failed to safen

COC(=O)COC(c1ccccc1)c1ccccc1 [Antidote No. 20, Acetic acid, (diphenylmethoxy)-, methyl ester]
safening of corn, assessment in words (corn [2]): failed to safen

CCOC(=O)c1cnn(C)c1S(=O)(=O)NC(=O)Nc1nc(OC)cc(OC)n1 [Herbicide No. 3, N-[(4,6-dimethoxypyrimidin-2-yl)aminocarbonyl]-4-ethoxycarbonyl-1-methylpyrazole-5-sulfonamide]
inhibition at 0.07 g/ha (corn [3]; Preemergence, herbicide alone 0.07 G/ha): 19.1% | inhibition at 0.25 g/ha (corn [3]; Preemergence, herbicide alone 0.25 G/ha, read-out: % Inhibition Corn): 80.9% | inhibition at 0.74 g/ha (corn [3]; Preemergence, herbicide alone 0.74 G/ha): 80.9% | inhibition at 0.25 g/ha (corn [3]; preemergence, Herbicide No. 3 0.25 G/ha, read-out: corn injury, percent inhibition of growth): 80.9%

CCOCN(C(=O)CCl)c1c(C)cccc1CC [Herbicide No. 6, 2-Chloro-N-(ethoxymethyl)-6'-ethyl-o-acetoluidide, reference compound]
injury to corn (corn [1]; Herbicide No. 6 2.24 kg/ha, without an antidote): 25%
